According to article PMC11773334, “Preparation and pharmacokinetic evaluation of a sertraline-methylpropyphenazone prodrug: a comparative metabolic study on the plasma and brain tissues of rats using LC-MS/MS analysis” (RSC Advances, 2025):

How the values were obtained:
[1] = QC sample stability in spiked rat plasma; type: in vitro ADME
Description: The working solutions were prepared separately for obtaining a 100 μg mL^−1 concentration. Calibration standards were generated from the working solution by spiking control plasma (100 μL) with a standard mixture to get the final concentrations: 25, 100, 250, 500, 1000, and 2000 ng mL^−1 plasma of each analyte. […]
Solid-phase extraction (SPE) was performed on the calibration standards prepared in plasma, quality control (QC) samples, rat plasma, and brain homogenate samples using Chromabond ® C8-100 mg columns (Macherey Nagel, Düren, Germany). […] The SPE column was filled with 25 μL of 0.1% aqueous ammonia solution, 100 μL plasma or brain homogenate, and 50 μL IS (20 ng μL^−1). […] The eluant was dried with nitrogen gas at room temperature, then reconstituted in 300 μL methanol, vortex, and transferred to a 0.9 mL total recovery autosampler vial, and dried with nitrogen gas.
(§1) The linearity of the targeted analytes was evaluated at six concentration levels spanning the range of 25–2000 ng mL^−1, and the calibration parameters were calculated. The method's accuracy was determined by calculating the estimated value for each QC sample compared with the actual concentration. The precision was assessed by analysis of QC samples at different concentrations (25.0, 500.0, and 2000.0 ng mL^−1) on separate days. The lowest point in the calibration curve was defined as the lower limit of quantification (LLOQ), which was determined to be at an acceptable accuracy and precision. The recovery of the extractions was evaluated by comparing the areas under the peak of the extracted samples with a non-extracted standard solution. Also, the matrix effect was evaluated by comparing the plasma sample spiked with the analyte with corresponding standard solutions at the same concentrations. Finally, the stability of the sample was investigated at three concentration levels, applying the same chromatographic conditions. The stability tests included long-term, short-term, and freeze-thaw stability.

[2] = cited from earlier work
[3] = Stability of standard solutions under storage conditions; type: physicochemical; settings: room temperature for 6 h and 4 °C for 12 h
Description: as §1
Standard solutions were maintained at room temperature for 6 h and 4 °C for 12 h, and then analyzed using the developed method. […] Recoveries remained above 89%, and the standard deviation (SD%) values were below 3%, as detailed in Table 3.

[4] = Concentration in rat brain homogenate after oral administration (LC-MS/MS); type: in vivo, Wistar rats; settings: 0.5 to 192 h after oral SER-MP
Description: Sildenafil was used as an internal standard (IS). […] The gradient program was configured as follows: 68% A from 0 to 2 min, raised to 96% A at 4.0 min, sustained at 96% A until 13 min, and then reverting back to 68% A at 13.1 min. […] The equilibration duration was 7.0 min. The sample injection volume was 5 μL.

rat serotonin (ST) = assay: Analysis of serotonin in brain homogenate (ELISA sandwich kit); settings: SER: within 1 to 3 h after oral administration, Fig. 6
Description: Wistar rats weighing 250 ± 30 g were included in the study. […] Phosphate-buffered saline (PBS) was utilized as a matrix to homogenize the brain samples. Both the brain and blood samples were frozen at −80 °C until their analysis.
An enzyme-linked immunosorbent assay (ELISA) sandwich kit was used in this study as it is known that it can accurately quantify rat serotonin (ST) in serum, plasma, cell culture supernatants, ascites, tissue homogenates, and other biological fluids. In the assay, first the plate was pre-coated with a rat ST antibody. When ST is present in the sample, it binds to the antibodies on the wells. Next, a biotinylated rat ST antibody was added, which binds to the ST in the sample. Streptavidin-HRP was then added, binding to the biotinylated ST antibody. After incubation, the unbound Streptavidin-HRP was washed away. […] The reaction was terminated by adding an acidic stop solution, and then the absorbance was measured at 450 nm.

[5] = Rat plasma pharmacokinetics after oral administration (LC-MS/MS, noncompartmental model)
Description: Sildenafil was used as an internal standard (IS). […] The MS conditions were set as follows: the ESI temperature was 330 °C, nitrogen gas flow rate was 11 L min^−1, nebulizer pressure was 35 psi, and capillary voltage was 4000 V. The MS settings were optimized for each compound, including the fragmentor voltage, dwell time (sec), and collision energy voltage. […] A gradient elution program was applied using a mobile phase composed of methanol (solvent A) and 0.7 g L^−1 ammonium acetate trihydrate in water with 0.1% formic acid (solvent B). […] The mobile phase was pumped at a flow rate of 0.4 mL min^−1. The equilibration duration was 7.0 min. The sample injection volume was 5 μL. The total running time for the analysis was 20 min. […] The SPE column was conditioned with 1 mL methanol and 2 mL of 0.1% aqueous ammonia solution. […] The SPE column was gently clicked to mix the solution, then allowed to elute just below the stationary phase surface before being trapped for 1 min in the stationary phase. The column was then washed with 1 mL of 0.1% ammonia solution, forcing nitrogen to eject water from the SPE column. The column was connected to a new port via a clean test tube, and the analytes were eluted using 3 mL ethyl acetate: n-hexane (2 : 1, v/v) and 1 mL methanol. […] The residue was dissolved in 50 μL methanol, and a 5 μL volume was injected for LC-MS/MS analysis. […] The results were expressed as the mean ± SD. The evaluated parameters included Cmax (maximum concentration), Tmax (time to reach Cmax), t1/2 (half-life), Ke (elimination rate constant), AUC (area under the concentration–time curve), AUMC (area under the first moment curve), and MRT (mean residence time). The data were analyzed using Kinetica® software, employing a noncompartmental analysis approach. […] The pharmacokinetic parameters between the groups were compared using an unpaired two-tailed t-test. Statistical significance was defined as P < 0.05.

[6] = rat plasma, oral SER-MP 16.0 mg kg^−1 (equimolar to SER dose), analyte SER-MP or released metabolite

Compound | Average recovery (%) ± SD, Autosampler (25 °C/24 h) ([1]; 50.0 ng mL^−1) | Average recovery (%) ± SD, Freeze-thaw (−20 °C/3 cycles) ([1]; 50.0 ng mL^−1) | Average recovery (%) ± SD, Autosampler (25 °C/24 h) ([1]; 500.0 ng mL^−1) | Average recovery (%) ± SD, Freeze-thaw (−20 °C/3 cycles) ([1]; 500.0 ng mL^−1) | Average recovery (%) ± SD, Autosampler (25 °C/24 h) ([1]; 2000.0 ng mL^−1) | Average recovery (%) ± SD, Freeze-thaw (−20 °C/3 cycles) ([1]; 2000.0 ng mL^−1) | Stability of standard solutions (change in peak area) [3] | also measured
N[C@H]1CC[C@@H](c2ccc(Cl)c(Cl)c2)c2ccccc21 [N-desmethyl-SER, N-Desmethyl-sertraline] |  |  |  |  |  |  |  | Half-life (t1/2) ([2]; in vivo): 66 to 80 h
CN[C@H]1CC[C@@H](c2ccc(Cl)c(Cl)c2)c2ccccc21 [SER, (1S,4S)-4-(3,4-dichlorophenyl)-N-methyl-1,2,3,4-tetrahydronaphthalen-1-amine] | 92.98 ± 1.35% | 91.04 ± 2.95% | 93.23 ± 0.98% | 90.68 ± 3.92% | 91.15 ± 2.20% | 89.23 ± 4.00% | No significant changes in peak area values | Fraction excreted as metabolites [2]: About 40%; Fraction in plasma bound to proteins [2]: About 98%
CC(C)c1c(CN[C@H]2CC[C@@H](c3ccc(Cl)c(Cl)c3)c3ccccc32)n(C)n(-c2ccccc2)c1=O [nor-methyl-SER-MP] |  |  |  |  |  |  |  | Time retained in the plasma ([5]; rat plasma after oral SER-MP, major metabolite): 195 h

Continued, in another order:

Average recovery (%) ± SD, Autosampler (25 °C/24 h) ([1]; 50.0 ng mL^−1) | Average recovery (%) ± SD, Freeze-thaw (−20 °C/3 cycles) ([1]; 50.0 ng mL^−1) | Average recovery (%) ± SD, Autosampler (25 °C/24 h) ([1]; 500.0 ng mL^−1) | Average recovery (%) ± SD, Freeze-thaw (−20 °C/3 cycles) ([1]; 500.0 ng mL^−1) | Average recovery (%) ± SD, Autosampler (25 °C/24 h) ([1]; 2000.0 ng mL^−1) | Average recovery (%) ± SD, Freeze-thaw (−20 °C/3 cycles) ([1]; 2000.0 ng mL^−1) | Compound | Stability of standard solutions (change in peak area) [3] | also measured
96.80 ± 0.98% | 94.39 ± 2.98% | 96.55 ± 1.20% | 95.47 ± 1.57% | 95.24 ± 2.56% | 95.73 ± 1.93% | CC(C)c1c(CO)n(C)n(-c2ccccc2)c1=O [3-OHMP, 3-hydroxymethylpropyphenazone] |  | 
97.45 ± 0.78% | 95.70 ± 1.76% | 98.76 ± 1.03% | 96.84 ± 0.68% | 98.88 ± 0.80% | 94.99 ± 2.09% | CC(C)c1c(CN(C)C2CCC(c3ccc(Cl)c(Cl)c3)c3ccccc32)n(C)n(-c2ccccc2)c1=O (stereo not shown) [SER-MP, sertraline-methylpropyphenazone] | No significant changes in peak area values | Concentration of SER-MP in rat brain [4]: ~100 ng/g; Course of serotonin level in the brain after a single oral dose (rat serotonin (ST)): approximately steady level; half-life ([5]; Wistar, rat, plasma, po, 16 mg kg^−1, t1/2 (half-life), rat plasma, oral SER-MP 16.0 mg kg^−1 (equimolar to SER dose), analyte SER-MP or released metabolite): 3000 min; Cmax ([5]; Wistar, rat, plasma, po, 16 mg/kg, Cmax (maximum plasma concentration), rat plasma, oral SER-MP 16.0 mg kg^−1 (equimolar to SER dose), analyte SER-MP or released metabolite): 192 ng/mL; Cmax (maximum plasma concentration) [5, 6]: 192.11 ng/mL; Total clearance rate [5, 6]: 4.32 mL/day/kg; t1/2 (half-life) [5, 6]: 49.97 h
